{
  "source": "PubChem BioAssay AID2060507",
  "about": "(Molecular Pharmacology Branch, DTP, NCI, 2025);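 also: spheroids exposed to compounds for 7 days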;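 as to viability, T/C: 100% = DMSO vehicle control viability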",
  "test_system": "519858-162-T-J1-PDC complex spheroid viability",
  "experiment": "Anticancer human tumor 519858-162-T-J1-PDC patient-derived colon adenocarcinoma cell line growth inhibition [GQUAD]",
  "details": "for IC50: curve of first compound; for viability, T/C: stronger effect = lower value",
  "method_in_brief": "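Tumor cells were grown as complex spheroids with HUVEC endothelial cells and mesenchymal stem cells as stroma. G-quadruplex stabilizers were combined with targeted agents over half-log dilutions from near the clinical Cmax, or from 10 microM.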",
  "key": {"[1]": {"details": "second compound 0.0316 µM, first compound 0.0316 µM"}, "[2]": {"details": "second compound 0.0316 µM, first compound 0.1 µM"}, "[3]": {"details": "second compound 0.0316 µM, first compound 0.316 µM"}, "[4]": {"details": "second compound 0.0316 µM, first compound 1 µM"}, "[5]": {"details": "second compound 0.0316 µM, first compound 3.16 µM"}, "[6]": {"details": "second compound 0.0316 µM, first compound 10 µM"}, "[7]": {"details": "second compound 0.1 µM, first compound 0.0316 µM"}, "[8]": {"details": "second compound 0.1 µM, first compound 0.1 µM"}, "[9]": {"details": "second compound 0.1 µM, first compound 0.316 µM"}, "[10]": {"details": "second compound 0.1 µM, first compound 1 µM"}, "[11]": {"details": "second compound 0.1 µM, first compound 3.16 µM"}, "[12]": {"details": "second compound 0.1 µM, first compound 10 µM"}, "[13]": {"details": "second compound 0.316 µM, first compound 0.0316 µM"}, "[14]": {"details": "second compound 0.316 µM, first compound 0.1 µM"}, "[15]": {"details": "second compound 0.316 µM, first compound 0.316 µM"}, "[16]": {"details": "second compound 0.316 µM, first compound 1 µM"}, "[17]": {"details": "second compound 0.316 µM, first compound 3.16 µM"}, "[18]": {"details": "second compound 0.316 µM, first compound 10 µM"}, "[19]": {"details": "second compound 1 µM, first compound 0.0316 µM"}, "[20]": {"details": "second compound 1 µM, first compound 0.1 µM"}, "[21]": {"details": "second compound 1 µM, first compound 0.316 µM"}, "[22]": {"details": "second compound 1 µM, first compound 1 µM"}, "[23]": {"details": "second compound 1 µM, first compound 3.16 µM"}, "[24]": {"details": "second compound 1 µM, first compound 10 µM"}, "[25]": {"details": "second compound 3.16 µM, first compound 0.0316 µM"}, "[26]": {"details": "second compound 3.16 µM, first compound 0.1 µM"}, "[27]": {"details": "second compound 3.16 µM, first compound 0.316 µM"}, "[28]": {"details": "second compound 3.16 µM, first compound 1 µM"}, "[29]": {"details": "second compound 3.16 µM, first compound 3.16 µM"}, "[30]": {"details": "second compound 3.16 µM, first compound 10 µM"}, "[31]": {"details": "second compound 10 µM, first compound 0.0316 µM"}, "[32]": {"details": "second compound 10 µM, first compound 0.1 µM"}, "[33]": {"details": "second compound 10 µM, first compound 0.316 µM"}, "[34]": {"details": "second compound 10 µM, first compound 1 µM"}, "[35]": {"details": "second compound 10 µM, first compound 3.16 µM"}, "[36]": {"details": "second compound 10 µM, first compound 10 µM"}},
  "data": [
    {"smiles": "CC(C)(O)C1CCC(Nc2ccc3ncc(-c4cccc(C(F)(F)F)c4)n3n2)CC1", "note": "(centres undefined) + Cc1[nH]c2ccc(F)cc2c1-c1nc2c3cccnc3c3ncccc3c2[nH]1", "values": [
      {"measurement": "IC50", "setting": "second compound 0.0316 µM", "value": 2370, "unit": "nM"},
      {"measurement": "IC50", "setting": "second compound 0.1 µM", "value": 2200, "unit": "nM"},
      {"measurement": "IC50", "setting": "second compound 0.316 µM", "value": 1970, "unit": "nM"},
      {"measurement": "IC50", "setting": "second compound 1 µM", "value": 1810, "unit": "nM"},
      {"measurement": "IC50", "setting": "second compound 3.16 µM", "value": 1750, "unit": "nM"},
      {"measurement": "IC50", "setting": "second compound 10 µM", "value": 1650, "unit": "nM"},
      {"measurement": "viability, T/C", "setting": "[1]", "value": 87.7, "unit": "%"},
      {"measurement": "viability, T/C", "setting": "[2]", "value": 99.6, "unit": "%"},
      {"measurement": "viability, T/C", "setting": "[3]", "value": 104, "unit": "%"},
      {"measurement": "viability, T/C", "setting": "[4]", "value": 98.5, "unit": "%"},
      {"measurement": "viability, T/C", "setting": "[5]", "value": 16.1, "unit": "%"},
      {"measurement": "viability, T/C", "setting": "[6]", "value": 52.3, "unit": "%"},
      {"measurement": "viability, T/C", "setting": "[7]", "value": 101, "unit": "%"},
      {"measurement": "viability, T/C", "setting": "[8]", "value": 82.5, "unit": "%"},
      {"measurement": "viability, T/C", "setting": "[9]", "value": 97.5, "unit": "%"},
      {"measurement": "viability, T/C", "setting": "[10]", "value": 120, "unit": "%"},
      {"measurement": "viability, T/C", "setting": "[11]", "value": 26.7, "unit": "%"},
      {"measurement": "viability, T/C", "setting": "[12]", "value": 26.9, "unit": "%"},
      {"measurement": "viability, T/C", "setting": "[13]", "value": 68.2, "unit": "%"},
      {"measurement": "viability, T/C", "setting": "[14]", "value": 84.2, "unit": "%"},
      {"measurement": "viability, T/C", "setting": "[15]", "value": 89.3, "unit": "%"},
      {"measurement": "viability, T/C", "setting": "[16]", "value": 131, "unit": "%"},
      {"measurement": "viability, T/C", "setting": "[17]", "value": 14.9, "unit": "%"},
      {"measurement": "viability, T/C", "setting": "[18]", "value": 24.8, "unit": "%"},
      {"measurement": "viability, T/C", "setting": "[19]", "value": 88, "unit": "%"},
      {"measurement": "viability, T/C", "setting": "[20]", "value": 89.3, "unit": "%"},
      {"measurement": "viability, T/C", "setting": "[21]", "value": 99.9, "unit": "%"},
      {"measurement": "viability, T/C", "setting": "[22]", "value": 100, "unit": "%"},
      {"measurement": "viability, T/C", "setting": "[23]", "value": 7.25, "unit": "%"},
      {"measurement": "viability, T/C", "setting": "[24]", "value": 9.88, "unit": "%"},
      {"measurement": "viability, T/C", "setting": "[25]", "value": 97.7, "unit": "%"},
      {"measurement": "viability, T/C", "setting": "[26]", "value": 84, "unit": "%"},
      {"measurement": "viability, T/C", "setting": "[27]", "value": 71.5, "unit": "%"},
      {"measurement": "viability, T/C", "setting": "[28]", "value": 122, "unit": "%"},
      {"measurement": "viability, T/C", "setting": "[29]", "value": 2.95, "unit": "%"},
      {"measurement": "viability, T/C", "setting": "[30]", "value": 4.04, "unit": "%"},
      {"measurement": "viability, T/C", "setting": "[31]", "value": 87.5, "unit": "%"},
      {"measurement": "viability, T/C", "setting": "[32]", "value": 63, "unit": "%"},
      {"measurement": "viability, T/C", "setting": "[33]", "value": 80.3, "unit": "%"},
      {"measurement": "viability, T/C", "setting": "[34]", "value": 102, "unit": "%"},
      {"measurement": "viability, T/C", "setting": "[35]", "value": 6.15, "unit": "%"},
      {"measurement": "viability, T/C", "setting": "[36]", "value": 7.1, "unit": "%"}
    ]},
    {"smiles": "CCCS(=O)(=O)Nc1ccc(F)c(C(=O)c2c[nH]c3ncc(-c4ccc(Cl)cc4)cc23)c1F", "note": "+ Cc1[nH]c2ccc(F)cc2c1-c1nc2c3cccnc3c3ncccc3c2[nH]1", "values": [
      {"measurement": "IC50", "setting": "second compound 0.0316 µM", "value": "> 10000", "unit": "nM"},
      {"measurement": "IC50", "setting": "second compound 0.1 µM", "value": "> 10000", "unit": "nM"},
      {"measurement": "IC50", "setting": "second compound 0.316 µM", "value": "> 10000", "unit": "nM"},
      {"measurement": "IC50", "setting": "second compound 1 µM", "value": "> 10000", "unit": "nM"},
      {"measurement": "IC50", "setting": "second compound 3.16 µM", "value": 7000, "unit": "nM"},
      {"measurement": "IC50", "setting": "second compound 10 µM", "value": "> 10000", "unit": "nM"},
      {"measurement": "viability, T/C", "setting": "[1]", "value": 90.7, "unit": "%"},
      {"measurement": "viability, T/C", "setting": "[2]", "value": 92, "unit": "%"},
      {"measurement": "viability, T/C", "setting": "[3]", "value": 83.7, "unit": "%"},
      {"measurement": "viability, T/C", "setting": "[4]", "value": 129, "unit": "%"},
      {"measurement": "viability, T/C", "setting": "[5]", "value": 135, "unit": "%"},
      {"measurement": "viability, T/C", "setting": "[6]", "value": 101, "unit": "%"},
      {"measurement": "viability, T/C", "setting": "[7]", "value": 103, "unit": "%"},
      {"measurement": "viability, T/C", "setting": "[8]", "value": 119, "unit": "%"},
      {"measurement": "viability, T/C", "setting": "[9]", "value": 97.9, "unit": "%"},
      {"measurement": "viability, T/C", "setting": "[10]", "value": 113, "unit": "%"},
      {"measurement": "viability, T/C", "setting": "[11]", "value": 87.6, "unit": "%"},
      {"measurement": "viability, T/C", "setting": "[12]", "value": 107, "unit": "%"},
      {"measurement": "viability, T/C", "setting": "[13]", "value": 101, "unit": "%"},
      {"measurement": "viability, T/C", "setting": "[14]", "value": 116, "unit": "%"},
      {"measurement": "viability, T/C", "setting": "[15]", "value": 108, "unit": "%"},
      {"measurement": "viability, T/C", "setting": "[16]", "value": 75.4, "unit": "%"},
      {"measurement": "viability, T/C", "setting": "[17]", "value": 112, "unit": "%"},
      {"measurement": "viability, T/C", "setting": "[18]", "value": 119, "unit": "%"},
      {"measurement": "viability, T/C", "setting": "[19]", "value": 62.5, "unit": "%"},
      {"measurement": "viability, T/C", "setting": "[20]", "value": 74.1, "unit": "%"},
      {"measurement": "viability, T/C", "setting": "[21]", "value": 99.3, "unit": "%"},
      {"measurement": "viability, T/C", "setting": "[22]", "value": 99.2, "unit": "%"},
      {"measurement": "viability, T/C", "setting": "[23]", "value": 115, "unit": "%"},
      {"measurement": "viability, T/C", "setting": "[24]", "value": 101, "unit": "%"},
      {"measurement": "viability, T/C", "setting": "[25]", "value": 86.3, "unit": "%"},
      {"measurement": "viability, T/C", "setting": "[26]", "value": 51.3, "unit": "%"},
      {"measurement": "viability, T/C", "setting": "[27]", "value": 81.9, "unit": "%"},
      {"measurement": "viability, T/C", "setting": "[28]", "value": 72, "unit": "%"},
      {"measurement": "viability, T/C", "setting": "[29]", "value": 86, "unit": "%"},
      {"measurement": "viability, T/C", "setting": "[30]", "value": 38.7, "unit": "%"},
      {"measurement": "viability, T/C", "setting": "[31]", "value": 79.8, "unit": "%"},
      {"measurement": "viability, T/C", "setting": "[32]", "value": 53.7, "unit": "%"},
      {"measurement": "viability, T/C", "setting": "[33]", "value": 60.8, "unit": "%"},
      {"measurement": "viability, T/C", "setting": "[34]", "value": 89.2, "unit": "%"},
      {"measurement": "viability, T/C", "setting": "[35]", "value": 105, "unit": "%"},
      {"measurement": "viability, T/C", "setting": "[36]", "value": 109, "unit": "%"}
    ]}
  ]
}
